# According to patent US20130303509A1, “NAMPT INHIBITORS” (AbbVie Inc., priority 2012, published 2013):
# System: PC3 cells
# Experiment: NAMPT Cell Proliferation Assay
# Type: cell-based
# Conditions: Homo sapiens, PC-3, 120 h, 5 days incubation, cell viability by Cell Titer Glo
# Method in brief: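 Seeded at 500 cells/well in RPMI with 10% heat-inactivated FBS and left to attach overnight at 37° C, 5% CO2. Compounds were added as 10-fold dilutions […] for 5 days, then viability was read by CellTiter-Glo. IC50s came from sigmoidal fits of percent inhibition.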
row,Compound,IC50 [µM]
1,"O=C(Nc1ccc(OC2CCN(C(=O)Cc3ccc(F)cc3)CC2)cc1)C1CN(c2ccnnc2)C1 [Example 276, N-[4-({1-[(4-fluorophenyl)acetyl]piperidin-4-yl}oxy)phenyl]-1-(pyridazin-4-yl)azetidine-3-carboxamide]",0.13
2,"O=C(Nc1ccc(OC2CCN(C(=O)Cc3ccc(F)cc3F)CC2)cc1)C1CN(c2ccnnc2)C1 [Example 277, N-[4-({1-[(2,4-difluorophenyl)acetyl]piperidin-4-yl}oxy)phenyl]-1-(pyridazin-4-yl)azetidine-3-carboxamide]",0.0731
3,"CC(=O)N1CCC(Oc2ccc(NC(=O)C3CN(c4ccnnc4)C3)cc2)CC1 [Example 282, N-{4-[(1-acetylpiperidin-4-yl)oxy]phenyl}-1-(pyridazin-4-yl)azetidine-3-carboxamide]",0.629
4,"O=C(Nc1ccc(OC2CCN(C(=O)c3nccs3)CC2)cc1)C1CN(c2ccnnc2)C1 [Example 283, 1-(pyridazin-4-yl)-N-(4-{[1-(1,3-thiazol-2-ylcarbonyl)piperidin-4-yl]oxy}phenyl)azetidine-3-carboxamide]",0.0725
5,"O=C(Nc1ccc(OC2CCN(C(=O)c3ccc(F)cc3F)CC2)cc1)C1CN(c2ccnnc2)C1 [Example 284, N-(4-{[1-(2,4-difluorobenzoyl)piperidin-4-yl]oxy}phenyl)-1-(pyridazin-4-yl)azetidine-3-carboxamide]",0.0666
6,"O=C(Nc1ccc(OC2CCN(C(=O)c3ccc(C(F)(F)F)cc3)CC2)cc1)C1CN(c2ccnnc2)C1 [Example 287, 1-(pyridazin-4-yl)-N-[4-({1-[4-(trifluoromethyl)benzoyl]piperidin-4-yl}oxy)phenyl]azetidine-3-carboxamide]",0.121
7,"O=C(Nc1ccc(OC2CCN(C(=O)Cc3cccc(F)c3)CC2)cc1)C1CN(c2ccnnc2)C1 [Example 288, N-[4-({1-[(3-fluorophenyl)acetyl]piperidin-4-yl}oxy)phenyl]-1-(pyridazin-4-yl)azetidine-3-carboxamide]",0.0248
8,"O=C(Nc1ccc(OC2CCN(C(=O)c3ccccc3F)CC2)cc1)C1CN(c2ccnnc2)C1 [Example 289, N-(4-{[1-(2-fluorobenzoyl)piperidin-4-yl]oxy}phenyl)-1-(pyridazin-4-yl)azetidine-3-carboxamide]",0.0532
9,"O=C(Nc1ccc(OC2CCN(C(=O)c3cccc(OC(F)(F)F)c3)CC2)cc1)C1CN(c2ccnnc2)C1 [Example 292, 1-(pyridazin-4-yl)-N-[4-({1-[3-(trifluoromethoxy)benzoyl]piperidin-4-yl}oxy)phenyl]azetidine-3-carboxamide]",0.0934
10,"O=C(Nc1ccc(OC2CCN(C(=O)CC3CC3)CC2)cc1)C1CN(c2ccnnc2)C1 [Example 293, N-(4-{[1-(cyclopropylacetyl)piperidin-4-yl]oxy}phenyl)-1-(pyridazin-4-yl)azetidine-3-carboxamide]",0.0723
11,"CC(C)C(=O)N1CCC(Oc2ccc(NC(=O)C3CN(c4ccnnc4)C3)cc2)CC1 [Example 294, N-(4-{[1-(2-methylpropanoyl)piperidin-4-yl]oxy}phenyl)-1-(pyridazin-4-yl)azetidine-3-carboxamide]",0.0832
12,"O=C(Nc1ccc(OC2CCN(C(=O)c3cccc(Cl)c3)CC2)cc1)C1CN(c2ccnnc2)C1 [Example 295, N-(4-{[1-(3-chlorobenzoyl)piperidin-4-yl]oxy}phenyl)-1-(pyridazin-4-yl)azetidine-3-carboxamide]",0.0715
13,"O=C(Nc1ccc(OC2CCN(C(=O)c3ccc(Cl)cc3)CC2)cc1)C1CN(c2ccnnc2)C1 [Example 297, N-(4-{[1-(4-chlorobenzoyl)piperidin-4-yl]oxy}phenyl)-1-(pyridazin-4-yl)azetidine-3-carboxamide]",0.0932
14,"O=C(Nc1ccc(OC2CCN(C(=O)C3CCOC3)CC2)cc1)C1CN(c2ccnnc2)C1 (stereo not shown) [Example 298, 1-(pyridazin-4-yl)-N-(4-{[1-(tetrahydrofuran-3-ylcarbonyl)piperidin-4-yl]oxy}phenyl)azetidine-3-carboxamide]",0.0979

# Continued by falling IC50, values first:
row,IC50 [µM],Compound
1,0.683,"O=C(Nc1ccc(OC2CCN(C(=O)Cc3ccc(OC(F)(F)F)cc3)CC2)cc1)C1CN(c2ccnnc2)C1 [Example 275, 1-(pyridazin-4-yl)-N-{4-[(1-{[4-(trifluoromethoxy)phenyl]acetyl}piperidin-4-yl)oxy]phenyl}azetidine-3-carboxamide]"
2,0.107,"O=C(Nc1ccc(OC2CCN(C(=O)c3ccc(F)c(F)c3)CC2)cc1)C1CN(c2ccnnc2)C1 [Example 274, N-(4-{[1-(3,4-difluorobenzoyl)piperidin-4-yl]oxy}phenyl)-1-(pyridazin-4-yl)azetidine-3-carboxamide]"
3,0.0807,"O=C(Nc1ccc(OC2CCN(C(=O)c3ccc(OC(F)(F)F)cc3)CC2)cc1)C1CN(c2ccnnc2)C1 [Example 290, 1-(pyridazin-4-yl)-N-[4-({1-[4-(trifluoromethoxy)benzoyl]piperidin-4-yl}oxy)phenyl]azetidine-3-carboxamide]"
4,0.0791,"O=C(Nc1ccc(OC2CCN(C(=O)c3ccsc3)CC2)cc1)C1CN(c2ccnnc2)C1 [Example 278, 1-(pyridazin-4-yl)-N-(4-{[1-(thiophen-3-ylcarbonyl)piperidin-4-yl]oxy}phenyl)azetidine-3-carboxamide]"
5,0.074,"O=C(Nc1ccc(OC2CCN(C(=O)c3cccc(F)c3)CC2)cc1)C1CN(c2ccnnc2)C1 [Example 286, N-(4-{[1-(3-fluorobenzoyl)piperidin-4-yl]oxy}phenyl)-1-(pyridazin-4-yl)azetidine-3-carboxamide]"
6,0.0736,"O=C(Nc1ccc(OC2CCN(C(=O)Cc3cc(F)cc(F)c3)CC2)cc1)C1CN(c2ccnnc2)C1 [Example 291, N-[4-({1-[(3,5-difluorophenyl)acetyl]piperidin-4-yl}oxy)phenyl]-1-(pyridazin-4-yl)azetidine-3-carboxamide]"
7,0.0719,"CC(C)(C)C(=O)N1CCC(Oc2ccc(NC(=O)C3CN(c4ccnnc4)C3)cc2)CC1 [Example 280, N-(4-{[1-(2,2-dimethylpropanoyl)piperidin-4-yl]oxy}phenyl)-1-(pyridazin-4-yl)azetidine-3-carboxamide]"
8,0.0692,"O=C(Nc1ccc(OC2CCN(C(=O)c3cccc(C(F)(F)F)c3)CC2)cc1)C1CN(c2ccnnc2)C1 [Example 285, 1-(pyridazin-4-yl)-N-[4-({1-[3-(trifluoromethyl)benzoyl]piperidin-4-yl}oxy)phenyl]azetidine-3-carboxamide]"
9,0.0689,"O=C(Nc1ccc(OC2CCN(C(=O)c3ccccn3)CC2)cc1)C1CN(c2ccnnc2)C1 [Example 296, 1-(pyridazin-4-yl)-N-(4-{[1-(pyridin-2-ylcarbonyl)piperidin-4-yl]oxy}phenyl)azetidine-3-carboxamide]"
10,0.0169,"CC(C)(C(=O)N1CCC(Oc2ccc(NC(=O)C3CN(c4ccnnc4)C3)cc2)CC1)c1ccccc1 [Example 281, N-(4-{[1-(2-methyl-2-phenylpropanoyl)piperidin-4-yl]oxy}phenyl)-1-(pyridazin-4-yl)azetidine-3-carboxamide]"
11,0.00972,"O=C(Nc1ccc(OC2CCN(C(=O)c3ccccc3Cl)CC2)cc1)C1CN(c2ccnnc2)C1 [Example 279, N-(4-{[1-(2-chlorobenzoyl)piperidin-4-yl]oxy}phenyl)-1-(pyridazin-4-yl)azetidine-3-carboxamide]"
